What was measured:
[1] = target: CYP2C19 (Homo sapiens, UniProt P33261); experiment: CYP isoenzyme activity; format: in vitro ADME; details: 0.1 μM
[2] = target: T1, CYP1A2 (Homo sapiens, UniProt P05177); experiment: CYP isoenzyme activity; format: in vitro ADME; details: 0.1 μM
T1 sequence (P05177 1-516): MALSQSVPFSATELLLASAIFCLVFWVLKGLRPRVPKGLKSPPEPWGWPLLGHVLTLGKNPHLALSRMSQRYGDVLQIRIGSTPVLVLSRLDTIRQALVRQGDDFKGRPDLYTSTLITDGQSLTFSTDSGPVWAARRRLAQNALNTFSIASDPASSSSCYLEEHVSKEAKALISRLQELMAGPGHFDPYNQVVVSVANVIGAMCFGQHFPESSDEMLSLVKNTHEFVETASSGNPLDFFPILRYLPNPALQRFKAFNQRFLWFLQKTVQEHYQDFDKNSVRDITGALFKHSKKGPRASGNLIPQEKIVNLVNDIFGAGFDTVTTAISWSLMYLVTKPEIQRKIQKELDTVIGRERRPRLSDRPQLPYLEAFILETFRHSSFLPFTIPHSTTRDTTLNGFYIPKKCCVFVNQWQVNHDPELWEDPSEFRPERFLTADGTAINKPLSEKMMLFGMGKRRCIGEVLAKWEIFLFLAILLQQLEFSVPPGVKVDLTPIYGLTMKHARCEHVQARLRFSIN

[3] = target: CYP2C9 (Homo sapiens, UniProt P11712); experiment: CYP isoenzyme activity; format: in vitro ADME; details: 0.1 μM
[4] = test system: CYP1A1; experiment: Induction of CYP1A1 protein expression in HepG2 (7-ethoxyresorufin/resorufin); format: cell-based, Human; details: HepG2, 1 μM, 24 hours, vs control (vehicle)
Method: After recovering HepG2 under culture in DMEM-fetal bovine serum (FBS) 10% medium and then confirming that the survival rate is 97% or more through trypan blue staining, the recovered product was centrifuged at a speed of 1200 rpm for 5 minutes at room temperature, and the cells were prepared by resuspending them in DMEM-fetal calf serum 10% medium at 1.5×10^5 cells/ml.
Thereafter, the cells were dispensed onto a 96-well plate by 200 μl, and each plate was treated with 3 μl of Compounds 6, 21, 32 and 39 at a concentration of 1 μM diluted in DMEM medium, and then cultured in a cell incubator (5% CO2 incubator) for 24 hours. As a control, 3 μl of 0.05% dimethylsulfoxide (DMSO)/DMEM medium was used for treatment.
After 24 hours, the medium of the plate was discarded, washed with dPBS, treated with 100 μl of 2 μM 7-ethoxyresorufin, and cultured in a cell incubator (5% CO2 incubator) for 30 minutes. After 30 minutes, each 75 μl of fluorescamine (150 μg/ml) was treated, then resorufine excitation was measured at 535 nm and emission at 590 nm. The standard curve was measured and used with 0 to 50 pmol of resorufin solution.
After measurement, all solutions were removed, followed by treating the same with 25 μl of 0.5 M sodium hydroxide (NaOH), the cells were scraped and reacted in a shaker at room temperature for 15 minutes.
After 15 minutes, protein was quantified using a Bradford method, and a value was obtained using a calculation formula (sample resorufin amount/sample protein amount), and then one (1) fold was set using the control.

[5] = test system: CYP1A1; experiment: Induction of CYP1A1 mRNA expression in HepG2 (real-time PCR); format: cell-based, Human; details: HepG2, 1 μM, 24 hours, vs control (vehicle)
Method: In order to confirm target specificity of the compounds of an embodiment of the present invention prepared as above, it was confirmed whether the expression levels of CYP1A1 mRNA and CYP1A1 protein, which are AHR target genes, were increased.
After recovering HepG2 under culture in DMEM-fetal bovine serum (FBS) 10% medium and then confirming that the survival rate is 97% or more through trypan blue staining, the recovered product was centrifuged at a speed of 1200 rpm for 5 minutes at room temperature, and the cells were prepared by resuspending them in DMEM-fetal calf serum 10% medium at 3×10^5 cells/ml. Thereafter, the cells were dispensed onto a 60 mm dish by 3 ml, and each dish was treated with 50 μl of Compounds 6, 21, 32 and 39 at a concentration of 1 μM diluted in DMEM medium, and then cultured in a cell incubator (5% CO2 incubator) for 24 hours. As a control, 50 μl of 0.05% dimethylsulfoxide (DMSO)/DMEM medium was used for treatment.
(§1) The cultured cells were recovered to prepare an mRNA sample. […] From the separated RNA, cDNA was synthesized by reverse transcription, and the expression of CYP1A1 was confirmed through a real-time polymerase chain reaction (PCR) using iQ SYBR-Green Supermix (Bio-rad) in a CFX96 (Bio-rad) detection system. […] Herein, one (1) fold was set using the control.
(§2) The real-time polymerase chain reaction was performed under the conditions of 45 cycles at an annealing temperature of 58° C., wherein the following primer sequences were used.

[6] = test system: IL-6; experiment: IL-6 production of A549 epithelial cells by IL-1β stimulation; format: cell-based, Human; details: A549, 5 μM, 48 hours then IL-1β 24 hours, vs control
Method: In order to assess the inhibitory effects of production of IL-6 by the compounds of the present invention prepared as above, an IL-6 production test of epithelial cells by stimulation of IL-1β was performed.
After recovering A549 cells under culture in DMEM-fetal bovine serum (FBS) 10% medium and confirming that the survival rate is 97% or more through trypan blue staining, the recovered product was centrifuged at a speed of 1200 rpm for 5 minutes at room temperature, and the cells were prepared by resuspending them in DMEM-10% fetal bovine serum medium at 1×10^6 cells/3 ml. Thereafter, the cells were dispensed by 3 ml onto a 60 mm plate, and each dish was treated with 50 μl of Compounds 6, 9, 21, 32 and 39 at a concentration of 5 μM diluted in DMEM medium, and then cultured in a cell incubator (5% CO2 incubator) for 48 hours. Then, the cells were treated with 50 μl of human recombinant IL-1β at a concentration of 12.5 ng/ml diluted in DMEM medium, followed by culturing the same in a cell incubator (5% CO2 incubator) for 24 hours. As a control, 50 μl of 0.05% dimethylsulfoxide (DMSO)/DMEM medium was used for treatment.
as §1, §2

[7] = test system: Foxp3-expressing regulatory T cells (Treg); experiment: Production of Foxp3-expressing regulatory T cells from naive CD4 T cells (flow cytometry); format: cell-based, C57BL/6 mice; details: 2.5 μM, 3 days, compared to Vehicle
Method: The spleen of C57BL/6 mice (8 to 12 weeks old, female) was excised, pulverized by adding RPMI medium, and then passed through a 40 μm cell strainer (BD Falcon), thereby obtaining a single cell suspension. The single cell suspension was centrifuged (1200 rpm, 5 minutes), and after discarding the supernatant, 1 ml of ACK lysis buffer was added, followed by stirring for 1 minute and then washing the same with RPMI medium. After the single cell suspension was centrifuged, T-cells were separated using a Mouse CD4 Naive T cell Enrichment Kit (Invitrogen). The separated T-cells were prepared by resuspending them in RPMI-fetal bovine serum (FBS) 10%+2-ME (mercaptoethanol) medium at 1×10^6/ml. For T-cell activation, 5 μg/ml anti-CD3 (eBioscience™) was dispensed by 100 μl onto a 96-well plate, reacted in a cell incubator (37° C., 5% CO2 incubator) for 4 hours, and washed with phosphate buffered saline to prepare the plate. The T-cells were dispensed by 200 μl onto the prepared plate, and each well was treated with 2 μg/ml of anti-CD28 (eBioscience™), 2 ng/ml of TGFβ-1 (R&D systems), and 100 U/ml of IL-2. Each 5 μl of Compounds 6 and 9 at a concentration of 2.5 μM diluted in RPMI-fetal bovine serum 10%+2-ME medium was used for treatment, followed by culturing the same in a cell incubator (37° C., 5% CO2 incubator) for 3 days. […]
In order to confirm the expression of Foxp3 protein, the recovered cells were placed in a 5 ml FACS tube (BD Falcon) and washed with 1 ml of phosphate buffered saline. […] The cells were washed twice with the Permeabilization buffer, suspended in 0.3 ml of FACS buffer, and measured by flow cytometry.
The promotion effects of Compound 6 and Comparative Example 1 on the production of “FoxP3-expressing regulatory T cells,” which play an important role in maintaining immune tolerance, were compared (FIG. 24). […] After 3 days, in order to confirm the effects of production of the regulatory T cells, the cultured cells were recovered and Foxp3 protein expression was measured in the same manner as in FIG. 4.

Sequence of CYP2C19 (P33261 whole entry): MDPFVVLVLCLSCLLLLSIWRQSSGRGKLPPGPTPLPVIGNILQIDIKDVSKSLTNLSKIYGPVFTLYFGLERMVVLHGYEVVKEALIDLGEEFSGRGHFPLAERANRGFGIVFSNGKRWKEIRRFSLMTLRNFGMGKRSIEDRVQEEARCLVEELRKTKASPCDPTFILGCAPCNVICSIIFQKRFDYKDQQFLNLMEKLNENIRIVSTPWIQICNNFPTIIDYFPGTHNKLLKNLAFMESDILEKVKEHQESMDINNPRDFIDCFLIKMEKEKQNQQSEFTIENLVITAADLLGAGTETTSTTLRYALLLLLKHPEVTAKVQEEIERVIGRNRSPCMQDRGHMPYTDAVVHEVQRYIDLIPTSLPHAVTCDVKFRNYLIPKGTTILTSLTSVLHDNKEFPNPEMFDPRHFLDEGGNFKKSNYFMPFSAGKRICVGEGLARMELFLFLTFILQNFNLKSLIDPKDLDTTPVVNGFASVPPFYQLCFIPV
Sequence of CYP2C9 (P11712 whole entry): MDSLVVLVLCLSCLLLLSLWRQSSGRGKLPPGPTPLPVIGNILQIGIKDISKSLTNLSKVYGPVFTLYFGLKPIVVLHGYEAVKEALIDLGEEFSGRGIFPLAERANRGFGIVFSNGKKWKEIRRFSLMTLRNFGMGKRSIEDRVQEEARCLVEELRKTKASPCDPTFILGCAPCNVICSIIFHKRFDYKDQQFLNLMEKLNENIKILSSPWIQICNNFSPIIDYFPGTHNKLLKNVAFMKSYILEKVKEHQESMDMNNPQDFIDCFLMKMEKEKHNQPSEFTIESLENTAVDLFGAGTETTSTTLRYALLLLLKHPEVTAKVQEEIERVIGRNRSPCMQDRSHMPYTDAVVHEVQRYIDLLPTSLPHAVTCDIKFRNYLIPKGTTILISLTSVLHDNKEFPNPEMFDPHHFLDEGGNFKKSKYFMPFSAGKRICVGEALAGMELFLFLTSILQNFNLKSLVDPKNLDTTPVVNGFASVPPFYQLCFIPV

CYP1A1 protein expression level [4]	CYP1A1 mRNA expression level [5]	Compound	CYP2C19 activity [1]	CYP1A2 activity [2]	CYP2C9 activity [3]	IL-6 production of A549 by IL-1β stimulation [6]	production of Foxp3-expressing regulatory T cells [7]
		CC(=O)N1CCN(c2ccc(OCC3COC(Cn4ccnc4)(c4ccc(Cl)cc4Cl)O3)cc2)CC1 (centres unmarked) [Ketoconazole]	96.7 % of Control Activity	95.4 % of Control Activity	98.6 % of Control Activity		
significantly higher	significantly induced	Cn1cc(CC(=O)Nc2nc3ccc(N4CCOCC4)cc3s2)c2cc(Cl)ccc21 [Compound 21, 2-(5-chloro-1-methyl-1H-indol-3-yl)-N-(6-morpholinobenzo[d]thiazol-2-yl)acetamide]				significantly reduced	
		CN1CCN(c2ccc3nc(NC(=O)Cc4c[nH]c5ccc(Cl)cc45)sc3c2)CC1 [Compound 9, 2-(5-chloro-1H-indol-3-yl)-N-(6-(4-methylpiperazine-1-yl)benzo[d]thiazol-2-yl)acetamide]				significantly reduced	markedly increased
significantly higher	significantly induced	COc1ccc2[nH]cc(CC(=O)Nc3nc4ccc(N5CCOCC5)cc4s3)c2c1 [Compound 39, 2-(5-methoxy-1H-indol-3-yl)-N-(6-morpholinobenzo[d]thiazol-2-yl)acetamide]				significantly reduced	
significantly higher	significantly induced	O=C(Cc1c[nH]c2ccc(O)cc12)Nc1nc2ccc(N3CCOCC3)cc2s1 [Compound 32, 2-(5-hydroxy-1H-indol-3-yl)-N-(6-morpholinobenzo[d]thiazol-2-yl)acetamide]				significantly reduced	

Source: US12187717B2, “Compound and use thereof in treating autoimmune diseases” (PARENCHYMA BIOTECH INC., priority 2022, dated 2025)
